# US20240262804A1, “NITROGEN-CONTAINING HETEROCYCLIC KETONES, PREPARATION METHODS AND MEDICINAL USES THEREOF” (Hansoh Bio LLC, priority 2021, published 2024)
# Target: bovine cardiac myosin (Bos taurus (Bovine), UniProt Q9BE39)
# Assay: Myosin inhibitory potency: PK/LDH-coupled ATPase assay on bovine skinned cardiac myofibrils
# Format: biochemical
# Conditions: pCa=6.25, 50 μM ATP, 25° C., read-out: myosin inhibition activity IC50
# Description: The average rates of ATPase inhibition, and the IC50 values are determined by Victor Nivo multimode plate reader (PerkinElmer, USA).
# As to the assays background, a biochemical assay couples the ATPase activity of bovine cardiac myosin to an enzymatic coupling system consisting of pyruvate kinase and lactate dehydrogenase (PK/LDH) and monitoring the absorbance decrease of NADH (at 340 nm) as a function of time to measure the inhibitory ability of small molecule agents. In the assay, PK converts ADP (Adenosine diphosphate) to ATP (adenosine triphosphate) by converting PEP (phosphoenolpyruvate) to pyruvate. Pyruvate is then converted to lactate by LDH by converting NADH (nicotinamide adenine dinucleotide) to NAD (oxidized nicotinamide adenine dinucleotide).
# In our experiments, bovine skinned cardiac myofibrils were isolated from the frozen bovine left ventricle as myosin's source in the ATPase assay. The calcium concentration that achieves a 50% (pCa50 or pCa=6.25) activation of the myofibril system was chosen as the final condition for assessing the activation activity according to the literature (DOI: 10.1074/jbc.M117.776815). Myofibrils ATPase activity was measured in a buffered solution containing 12 mM PIPES (piperazine-N, N′-bis(2-ethane sulfonic acid) and 2 mM magnesium chloride at pH 6.8 (PM12 buffer). Final assay conditions were 1 mg/mL of bovine cardiac myofibrils, 1:20 of stock PK/LDH (Sigma-Aldrich, Cat No. P0294-5X5ML), 50 μM ATP, 1 mM DTT (dithiothreitol), 0.75 mM NADH, 1.5 mM PEP at pCa50 (pCa=6.25). Compounds were dissolved in DMSO (dimethyl sulfoxide). Serial dilution of compounds was created such that the final desired concentration of compound would be achieved in a volume of 150 μL with a fixed DMSO concentration of 2% (v/v). 75 μL of a solution containing bovine cardiac myofibrils, PK/LDH, and calcium were added to a 96 well plate for a 7 point dose-response. In some circumstances, 10 point-response was used to repeat the ATPase assays on compounds of interest. Compounds were added to the myofibrils solution and incubated for 5 minutes. The enzymatic reaction was started with the addition of 75 μL of a solution containing ATP, PEP, NADH, compounds, and calcium. The ATPase activity was measured by reading absorbance at 340 nm in a PerkinElmer Victor Nivo plate reader at 25° C. in kinetic mode for 15 minutes using clear bottom plates. The slopes of the absorbance changes as a function of time for the first 10 minutes were normalized to slopes on the control wells containing all reagents, including DMSO, but without compounds. This normalized rate was then plotted as a function of small molecule concentration in GraphPad prism 9. The data were fitted to a four-parameter fit, and IC50 was calculated using Graphpad Prism 9.
# Sequence of bovine cardiac myosin (Q9BE39 whole entry): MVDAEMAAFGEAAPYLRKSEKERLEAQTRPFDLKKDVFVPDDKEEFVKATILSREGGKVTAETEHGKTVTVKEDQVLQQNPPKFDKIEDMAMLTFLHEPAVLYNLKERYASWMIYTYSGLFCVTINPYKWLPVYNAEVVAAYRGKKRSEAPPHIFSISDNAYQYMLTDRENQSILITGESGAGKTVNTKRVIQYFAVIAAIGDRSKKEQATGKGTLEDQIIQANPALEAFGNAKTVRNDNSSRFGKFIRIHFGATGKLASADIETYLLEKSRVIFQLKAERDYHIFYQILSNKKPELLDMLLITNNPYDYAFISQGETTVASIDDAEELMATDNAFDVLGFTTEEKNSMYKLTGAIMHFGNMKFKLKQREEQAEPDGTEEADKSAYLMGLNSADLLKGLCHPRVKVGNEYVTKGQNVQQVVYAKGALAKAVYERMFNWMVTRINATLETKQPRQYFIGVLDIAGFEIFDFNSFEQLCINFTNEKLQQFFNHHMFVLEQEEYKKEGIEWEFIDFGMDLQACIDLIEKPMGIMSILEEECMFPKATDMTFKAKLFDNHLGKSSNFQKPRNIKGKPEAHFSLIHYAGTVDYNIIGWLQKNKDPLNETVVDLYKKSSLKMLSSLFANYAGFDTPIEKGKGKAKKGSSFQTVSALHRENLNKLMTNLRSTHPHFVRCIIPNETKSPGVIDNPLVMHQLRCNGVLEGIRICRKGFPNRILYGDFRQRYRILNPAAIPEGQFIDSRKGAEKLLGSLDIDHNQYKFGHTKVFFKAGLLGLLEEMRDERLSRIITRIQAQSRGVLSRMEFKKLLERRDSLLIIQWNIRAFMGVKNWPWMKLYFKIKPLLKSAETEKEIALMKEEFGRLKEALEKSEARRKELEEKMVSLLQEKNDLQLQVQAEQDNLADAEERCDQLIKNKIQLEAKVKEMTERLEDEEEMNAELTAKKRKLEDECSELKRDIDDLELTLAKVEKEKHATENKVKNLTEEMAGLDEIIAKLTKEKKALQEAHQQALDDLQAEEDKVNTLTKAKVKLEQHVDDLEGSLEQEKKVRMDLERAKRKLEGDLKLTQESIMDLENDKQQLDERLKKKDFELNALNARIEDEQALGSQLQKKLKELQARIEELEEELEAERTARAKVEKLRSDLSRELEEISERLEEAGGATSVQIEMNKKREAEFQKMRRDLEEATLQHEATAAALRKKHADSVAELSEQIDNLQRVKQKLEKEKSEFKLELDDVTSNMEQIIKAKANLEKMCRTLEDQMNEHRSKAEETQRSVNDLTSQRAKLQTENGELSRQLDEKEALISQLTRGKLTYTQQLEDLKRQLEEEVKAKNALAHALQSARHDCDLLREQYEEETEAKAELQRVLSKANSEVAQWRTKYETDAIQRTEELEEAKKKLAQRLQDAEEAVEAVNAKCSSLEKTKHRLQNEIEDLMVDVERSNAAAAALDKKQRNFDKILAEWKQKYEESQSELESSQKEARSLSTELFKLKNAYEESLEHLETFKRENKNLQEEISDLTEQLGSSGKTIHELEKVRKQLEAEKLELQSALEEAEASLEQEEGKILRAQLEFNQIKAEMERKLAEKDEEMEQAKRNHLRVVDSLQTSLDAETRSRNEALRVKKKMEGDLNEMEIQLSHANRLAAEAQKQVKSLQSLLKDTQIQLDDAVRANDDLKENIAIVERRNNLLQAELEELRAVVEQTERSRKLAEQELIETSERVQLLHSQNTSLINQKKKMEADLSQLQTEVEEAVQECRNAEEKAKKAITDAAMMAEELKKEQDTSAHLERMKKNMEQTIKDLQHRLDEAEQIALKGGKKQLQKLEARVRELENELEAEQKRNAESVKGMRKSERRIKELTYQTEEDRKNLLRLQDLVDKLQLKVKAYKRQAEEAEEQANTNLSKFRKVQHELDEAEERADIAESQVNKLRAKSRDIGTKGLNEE
# Sequence of bovine cardiac myosin (P85100 whole entry partner): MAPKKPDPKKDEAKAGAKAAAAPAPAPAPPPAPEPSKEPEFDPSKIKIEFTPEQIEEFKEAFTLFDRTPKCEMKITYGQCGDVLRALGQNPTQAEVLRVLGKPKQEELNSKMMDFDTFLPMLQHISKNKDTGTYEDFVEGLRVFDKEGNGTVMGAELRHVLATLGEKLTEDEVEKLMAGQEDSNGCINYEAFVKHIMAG
# Sequence of bovine cardiac myosin (Q3SZE5 whole entry partner): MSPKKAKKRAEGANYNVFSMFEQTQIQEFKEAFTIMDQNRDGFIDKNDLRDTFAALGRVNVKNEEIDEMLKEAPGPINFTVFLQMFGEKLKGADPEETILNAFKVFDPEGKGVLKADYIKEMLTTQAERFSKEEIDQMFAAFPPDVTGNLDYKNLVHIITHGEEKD
row,Structure (SMILES),IC50 [nM]
1,C[C@H](Nc1nc(=O)n([C@H]2CC[C@H](O)CC2)c(=O)[nH]1)C1CCCCC1 [Example 238],4280
2,CC(C#N)c1cccc([C@H](C)Nc2nc(=O)n(C3CCOCC3)c(=O)[nH]2)c1 (some centres unmarked) [Example 277],240
3,C[C@H](Nc1nc(=O)n(C2(C)CCCC2)c(=O)[nH]1)C1CCCCC1 [Example 90],8720
4,CC(C)n1c(=O)nc(N[C@H](c2cccc(C3CN(CC(F)(F)F)C3)c2)C(F)F)[nH]c1=O [Example 261],760
5,CC(=O)N1CCC(c2cccc([C@H](C)Nc3nc(=O)n(C(C)C)c(=O)[nH]3)c2)CC1 [Example 289],1800
6,CC(C)C(=O)N1CCC(n2c(=O)nc(N[C@@H](C)C3CCCCC3)[nH]c2=O)CC1 [Example 234],7080
7,C[C@H](Nc1nc(=O)n(C2CCOCC2)c(=O)[nH]1)c1cccc(N2CCN(C)CC2)c1 [Example 212],17700
8,Cc1cccc([C@H](C)Nc2nc(=O)n([C@H]3CCOC[C@H]3F)c(=O)[nH]2)c1 [Example 316],1230
9,CC(C)Oc1ccc([C@H](C)Nc2nc(=O)n(C3CCOCC3)c(=O)[nH]2)cc1 [Example 43],1080
10,C[C@H](Nc1nc(=O)n(C2CCOCC2)c(=O)[nH]1)c1cccc(C2CN(C(=O)OC(C)(C)C)C2)c1 [Example 336],1160
11,O=c1nc(NCCC2CCCCC2)[nH]c(=O)n1C1CCOCC1 [Example 114],14200
12,O=c1nc(NC(C2CCCCC2)C(F)(F)F)[nH]c(=O)n1C1CCOCC1 (centres unmarked) [Example 75],6120
13,CC(Nc1nc(=O)n(C2CCNCC2)c(=O)[nH]1)c1cccc(C(F)(F)F)c1 (centres unmarked) [Example 192],5810
14,C[C@H](O)c1cccc([C@H](C)Nc2nc(=O)n(C3CCOCC3)c(=O)[nH]2)c1 [Example 344],550
15,C[C@H](Nc1nc(=O)n([C@@H](C)C(F)(F)F)c(=O)[nH]1)c1cccc(C(F)(F)F)c1 [Example 332],1390
16,C[C@H](Nc1nc(=O)n(C2CCOCC2)c(=O)[nH]1)c1cccc(Cl)c1F [Example 11],1370
17,Cc1cccc([C@H](C)Nc2nc(=O)n(C3CCCOC3)c(=O)[nH]2)c1 (some centres unmarked) [Example 35],2590
18,Cc1ccc(C(C)Nc2nc(=O)n(C3CCNCC3)c(=O)[nH]2)cc1 (centres unmarked) [Example 194],4470
19,Cc1cccc(C(C)Nc2nc(=O)n(C3CCN(C(=O)OC(C)(C)C)CC3)c(=O)[nH]2)c1 (centres unmarked) [Example 146],5510
20,CCc1ccc([C@H](C)Nc2nc(=O)n(C3CCOCC3)c(=O)[nH]2)cc1 [Example 186],740
21,O=c1nc(N[C@H](c2cccc(Br)c2)C(F)F)[nH]c(=O)n1C1CCOCC1 [Example 270],550
22,CC(Nc1nc(=O)n(C(C)C)c(=O)[nH]1)C1CCC(F)(F)CC1 (centres unmarked) [Example 66],10200

row,Structure (SMILES),IC50 [nM]
1,CC(C)n1c(=O)nc(N[C@@H](C)c2cccc(F)c2)[nH]c1=O [Example 181],2380
2,CO[C@H]1CC[C@@H](n2c(=O)nc(N[C@@H](C)C3CCCCC3)[nH]c2=O)CC1 [Example 84],5770
3,C[C@H](Nc1nc(=O)n(C2CCOCC2)c(=O)[nH]1)c1ccc(S(C)(=O)=O)cc1 [Example 249],780
4,CC(O)c1cccc([C@H](C)Nc2nc(=O)n(C3CCOCC3)c(=O)[nH]2)c1 (some centres unmarked) [Example 248],1500
5,COC[C@@H](Nc1nc(=O)n(C2CCOCC2)c(=O)[nH]1)c1cc(C)ccc1F [Example 278],630
6,CC(Nc1nc(=O)n(C2CCOCC2)c(=O)[nH]1)c1cccc(CO)c1 (centres unmarked) [Example 139],6650
7,Cc1ccc(F)c([C@H](C)Nc2nc(=O)n([C@@H](C)C(F)(F)F)c(=O)[nH]2)c1 [Example 311],2360
8,CC(Nc1nc(=O)n(C2CCNCC2)c(=O)[nH]1)c1ccccc1F (centres unmarked) [Example 190],4650
9,C[C@@H](Nc1nc(=O)n(C2CCOCC2)c(=O)[nH]1)c1ccc(C2CC2)cc1 [Example 334],700
10,CC(C)[C@@H](O)c1cccc([C@H](C)Nc2nc(=O)n(C3CCOCC3)c(=O)[nH]2)c1 [Example 287],540
11,C[C@H](Nc1nc(=O)n([C@H](C)C(F)(F)F)c(=O)[nH]1)c1ccc(Cl)c(Cl)c1 [Example 323],710
12,Cc1cnn(-c2cccc([C@H](C)Nc3nc(=O)n(C4CCOCC4)c(=O)[nH]3)c2)c1 [Example 204],5430
13,C[C@H](Nc1nc(=O)n(C2CCOCC2)c(=O)[nH]1)c1cccc(F)c1F [Example 170],1520
14,Cc1cccc([C@H](Nc2nc(=O)n(C3CCOCC3)c(=O)[nH]2)C(F)F)c1 [Example 284],290
15,CC(Nc1nc(=O)n(C2CCOCC2)c(=O)[nH]1)c1cccc(C(F)(F)F)c1 (centres unmarked) [Example 130],4700
16,Cc1cccc([C@H](C)Nc2nc(=O)n([C@H]3CC[C@H](NC(=O)OC(C)(C)C)CC3)c(=O)[nH]2)c1 [Example 97],1290
17,C[C@H](Nc1nc(=O)n(C2CCOCC2)c(=O)[nH]1)c1cccc([C@H](O)C(F)(F)F)c1 [Example 291],850
18,Cc1noc(C)c1-c1cccc([C@H](C)Nc2nc(=O)n(C3CCOCC3)c(=O)[nH]2)c1 [Example 198],1210
19,CC(Nc1nc(=O)n(C2CCOCC2)c(=O)[nH]1)c1cc(F)ccc1F (centres unmarked) [Example 319],1280
20,Cc1ccc(F)c([C@H](C)Nc2nc(=O)n([C@H](C)C(F)(F)F)c(=O)[nH]2)c1 [Example 302],880
21,C[C@H](Nc1nc(=O)n(C2CCOCC2)c(=O)[nH]1)c1cccc(-n2cncn2)c1 [Example 201],4850
22,CC(Nc1nc(=O)n(C2CCOCC2)c(=O)[nH]1)c1ccccc1F (centres unmarked) [Example 121],2620

row,Structure (SMILES),IC50 [nM]
1,CC(C)n1c(=O)nc(N[C@@H](C)c2cccc(C3CCOCC3)c2)[nH]c1=O [Example 295],1360
2,CC(C)c1cccc([C@H](C)Nc2nc(=O)n(C3CCOCC3)c(=O)[nH]2)c1 [Example 308],1000
3,Cc1ccc(F)c([C@H](C)Nc2nc(=O)n([C@H]3CCOC[C@H]3F)c(=O)[nH]2)c1 [Example 314],770
4,CC(C)n1c(=O)nc(N[C@@H](C)c2cccc([C@H](C)O)c2)[nH]c1=O [Example 343],1510
5,CC(Nc1nc(=O)n(C2CCOCC2)c(=O)[nH]1)c1ccc2c(c1)OC(F)(F)O2 (centres unmarked) [Example 148],1140
6,CC(n1c(=O)nc(N[C@@H](C)C2CCCCC2)[nH]c1=O)C(F)(F)F (some centres unmarked) [Example 52],6140
7,CC(=O)N1CCN(c2cccc([C@H](C)Nc3nc(=O)n(C4CCOCC4)c(=O)[nH]3)c2)CC1 [Example 213],7790
8,CC(C)n1c(=O)nc(N[C@@H](C)c2ccc(OC(F)(F)F)cc2)[nH]c1=O [Example 177],1750
9,Cc1cc([C@H](C)Nc2nc(=O)n(C(C)C)c(=O)[nH]2)ccc1F [Example 305],950
10,Cc1cccc([C@H](C)Nc2nc(=O)n(C3CCOC(C)C3)c(=O)[nH]2)c1 (some centres unmarked) [Example 100],5410
11,Cc1cc([C@@H](C)Nc2nc(=O)n(C3CCOCC3)c(=O)[nH]2)c(F)cc1F [Example 272],370
12,C[C@H](Nc1nc(=O)n(C2CCOCC2)c(=O)[nH]1)c1cccc(-c2ccc(F)cc2)c1 [Example 226],1750
13,COc1ccc([C@H](C)Nc2nc(=O)n(C3CCOCC3)c(=O)[nH]2)cc1 [Example 48],1130
14,C[C@H](Nc1nc(=O)n(C2CCOCC2)c(=O)[nH]1)c1cccc([C@@H](O)C(F)(F)F)c1 [Example 346],2580
15,C[C@H](Nc1nc(=O)n(C2CCOCC2)c(=O)[nH]1)c1cccc(C2CCN(CC(F)(F)F)CC2)c1 [Example 290],2210
16,Cc1cccc(C(C)Nc2nc(=O)n(C3CCOCC3)c(=O)[nH]2)c1 (centres unmarked) [Example 133],240
17,Cc1ccc(F)c([C@H](C)Nc2nc(=O)n([C@@H]3CCOC[C@@H]3F)c(=O)[nH]2)c1 [Example 313],1370
18,CC(C)n1c(=O)nc(N[C@H](c2cccc(C(C)(C)C#N)c2)C(F)F)[nH]c1=O [Example 264],1370
19,CC(Nc1nc(=O)n(C2CCOCC2)c(=O)[nH]1)c1ccc(F)cc1 (centres unmarked) [Example 125],8400
20,C[C@H](Nc1nc(=O)n(C2CCOCC2)c(=O)[nH]1)c1cccc(N2CCOCC2)c1 [Example 206],3800
21,C[C@H](Nc1nc(=O)n(C2CCN(C)C(=O)C2)c(=O)[nH]1)C1CCCCC1 (some centres unmarked) [Example 23],8050
